Data reported in patent US8372379B2, “Technetium-99m (I) tricarbonyl complexes with tridentate chelators for myocardium imaging” (Mallinckrodt LLC, priority 2006, dated 2013).

Test: Biodistribution of 99mTc complexes in female CD-1 mice after intravenous injection
Type: in vivo
Conditions: i.v.
Procedure: These studies have been designed as a preliminary screening tool to evaluate the biological profile of the cationic tricarbonyl complexes. The biodistribution of the complexes was evaluated in groups of 5 female CD-1 mice (randomly bred, Charles River) weighing approximately 20-25 g each and have been performed according to EEC Legislation (National Law 129/92) on ethical and animal care. Animals were intravenously injected with 100 μL (1.5-8.0 MBq) of each preparation via the tail vein and were maintained on normal diet ad libitum. […] The injected radioactive dose and the radioactivity remaining in the animal after sacrifice were measured in a dose calibrator (Aloka, Curiemeter IGC-3, Tokyo, Japan). The difference between the radioactivity in the injected and sacrificed animal was assumed to be due to total excretion from whole body animal. Blood samples were taken by cardiac puncture at sacrifice. Tissue samples of the main organs were then removed, weighted and counted in a gamma counter (Berthold). Biodistribution results were expressed as percentage of the injected dose per organ (% ID/organ) and/or per gram tissue (% ID/g). For blood, total activity was calculated assuming that this organ constitutes 6% of the total weight, respectively. The remaining activity in the carcass was also measured in a dose calibrator.

[C-]#[N+]CC(C)(C)OC.[C-]#[N+]CC(C)(C)OC.[C-]#[N+]CC(C)(C)OC.[C-]#[N+]CC(C)(C)OC.[C-]#[N+]CC(C)(C)OC.[C-]#[N+]CC(C)(C)OC.[Tc] [^99mTc-Sestamibi]
Blood uptake (5 min p.i.): 2.0 ± 0.4 % ID/g of wet organ | Heart uptake (5 min p.i.): 9.4 ± 0.4 % ID/g of wet organ | Heart/Blood ratio (5 min p.i.): 4.1 ± 0.7 | Heart/Liver ratio (5 min p.i.): 0.9 ± 0.2 | Heart/Lung ratio (5 min p.i.): 3.5 ± 0.8 | Kidney uptake (5 min p.i.): 34.2 ± 2.4 % ID/g of wet organ | Liver uptake (5 min p.i.): 9.0 ± 1.8 % ID/g of wet organ | Lung uptake (5 min p.i.): 2.4 ± 0.6 % ID/g of wet organ | Blood uptake (1 h (60 min) p.i.): 1.2 ± 0.4 % ID/g of wet organ | Heart uptake (1 h (60 min) p.i.): 8.0 ± 0.6 % ID/g of wet organ | Heart/Blood ratio (1 h (60 min) p.i.): 7.9 ± 3.6 | Heart/Liver ratio (1 h (60 min) p.i.): 1.4 ± 0.1 | Heart/Lung ratio (1 h (60 min) p.i.): 6.3 ± 0.6 | Kidney uptake (1 h (60 min) p.i.): 14.8 ± 6.1 % ID/g of wet organ | Liver uptake (1 h (60 min) p.i.): 5.6 ± 0.3 % ID/g of wet organ | Lung uptake (1 h (60 min) p.i.): 1.3 ± 0.2 % ID/g of wet organ | Blood uptake (2 h (120 min) p.i.): 1.1 ± 0.3 % ID/g of wet organ | Heart uptake (2 h (120 min) p.i.): 7.9 ± 1.0 % ID/g of wet organ | Heart/Blood ratio (2 h (120 min) p.i.): 7.4 ± 2.3 | Heart/Liver ratio (2 h (120 min) p.i.): 1.8 ± 0.7 | Heart/Lung ratio (2 h (120 min) p.i.): 9.2 ± 1.1 | Kidney uptake (2 h (120 min) p.i.): 9.7 ± 1.8 % ID/g of wet organ | Liver uptake (2 h (120 min) p.i.): 5.0 ± 2.1 % ID/g of wet organ | Lung uptake (2 h (120 min) p.i.): 0.9 ± 0.2 % ID/g of wet organ
